Test results reported in patent publication US11312705B2, “Heteroaryl[4,3-C]pyrimidine-5-amine derivative, preparation method therefor, and medical uses thereof” (Jiangsu Hengrui Medicine Co., Ltd., priority 2017, dated 2022).

Experiments:
Assay type in all cases: cell-based
[1] = target: adenosine A2b receptor (A2bR) (Homo sapiens (Human), UniProt P29275); test: Inhibition of adenosine A2b receptor cAMP signaling pathway (HTRF cAMP, CHO-K1/A2bR cells); details: Table 3; for IC50: CHO-K1/A2bR cells, ethyl carbazole 1 μM, cAMP HTRF; for IC50 ratio (A2bR/A2aR): selectivity A2bR over A2aR
Source text: (§1) Test Example 1. Determination of the inhibition activity of the compounds of the present invention on the adenosine A2a receptor (A2aR) cAMP signaling pathway, the adenosine A2b receptor (A2bR) cAMP signaling pathway, the adenosine A1 receptor (A1R) cAMP signaling pathway and the adenosine A3 receptor (A3R) cAMP signaling pathway.
(§2) The inhibition activity of the compounds of the present invention on the adenosine A2a receptor cAMP signaling pathway, the adenosine A2b receptor cAMP signaling pathway, the adenosine A1 receptor cAMP signaling pathway and the adenosine A3 receptor cAMP signaling pathway was determined by the following method. The experimental method is briefly described as follows:
2.4 Adenosine A2b receptor (A2bR)
CHO-K1/A2bR cells were cultured in DMEM/F12 medium containing 10% fetal bovine serum and 1 mg/ml G418. The cells were digested with the cell separation buffer during the experiment. The cells were resuspended in the balanced salt buffer containing 20 mM HEPES and 0.1% bovine serum albumin and counted, and the cell density was adjusted to 10^6 cells/ml. In the 384-well plate, each well was added with 5 μl of cell suspension, and 2.5 μl of test compound (4× concentration) formulated with the balanced salt buffer containing 20 mM HEPES, 0.1% bovine serum albumin, 54 μM rolipram and 2.7 U/ml adenosine deaminase, and the plate was incubated at room temperature for 30 minutes. Each well was then added with 2.5 μl of […] (4× concentration) (Torcis, 1691/10) formulated with the balanced salt buffer containing 20 mM HEPES, 0.1% bovine serum albumin, 54 μM rolipram and 2.7 U/ml adenosine deaminase, and the plate was incubated at room temperature for 30 minutes. The final concentrations of the compounds were: 100000, 10000, 1000, 100, 10, 1, 0.1 and 0 nM. The final concentration of […] was 1 μM. Intracellular cAMP concentration was detected with the cAMP dynamic 2 kit. cAMP-d2 and Anti-cAMP-Eu-Cryptate were diluted respectively with the cAMP lysis buffer at a ratio of 1:4. Each well was added with 5 μl of diluted cAMP-d2, followed by addition of 5 μl of diluted Anti-cAMP-Eu-Cryptate, and the plate was incubated at room temperature in the dark for 1 hour. The HTRF signal values were read by the PHERAstar multi-function microplate reader.

[2] = target: adenosine A3 receptor (A3R) (Homo sapiens (Human), UniProt P0DMS8); test: Inhibition of adenosine A3 receptor cAMP signaling pathway (HTRF cAMP, CHO-K1/A3R cells); details: Table 2; for IC50: CHO-K1/A3R cells, forskolin 10 μM, 2Cl-IB-MECA 5 nM, cAMP HTRF
Source text: as §1, §2
2.3 Adenosine A3 receptor
(§3) CHO-K1/A3R cells were cultured in DMEM/F12 medium containing 10% fetal bovine serum and 10 μg/ml puromycin. The cells were digested with the cell separation buffer during the experiment. The cells were resuspended in the balanced salt buffer containing 20 mM HEPES and 0.1% bovine serum albumin and counted, and the cell density was adjusted to 5×10^5 cells/ml. In the 384-well plate, each well was added with 12.5 μl of cell suspension, and 6.25 μl of test compound (4× concentration) formulated with the balanced salt buffer containing 20 mM HEPES, 0.1% bovine serum albumin, 54 μM rolipram and 2.7 U/ml adenosine deaminase, and the plate was incubated at room temperature for 30 minutes. Each well was then added with 6.25 μl of forskolin and 2Cl-IB-MECA (4× concentration) formulated with the balanced salt buffer containing 20 mM HEPES, 0.1% bovine serum albumin, 54 μM rolipram and 2.7 U/ml adenosine deaminase, and the plate was incubated at room temperature for 30 minutes. The final concentrations of the compounds were: 100000, 10000, 1000, 100, 10, 1, 0.1 and 0 nM. The final concentration of forskolin was 10 μM. The final concentration of 2Cl-IB-MECA was 5 nM. Intracellular cAMP concentration was detected with the cAMP dynamic 2 kit. cAMP-d2 and Anti-cAMP-Eu-Cryptate were diluted respectively with the cAMP lysis buffer at a ratio of 1:4. Each well was added with 12.5 μl of diluted cAMP-d2, followed by addition of 12.5 μl of diluted Anti-cAMP-Eu-Cryptate, and the plate was incubated at room temperature in the dark for 1 hour. The HTRF signal values were read by the PHERAstar multi-function microplate reader.

[3] = target: adenosine A1 receptor (A1R) (Homo sapiens (Human), UniProt P30542); test: Inhibition of adenosine A1 receptor cAMP signaling pathway (HTRF cAMP, CHO-K1/A1R cells); details: Table 2; for IC50: CHO-K1/A1R cells, forskolin 10 μM, CPA 10 nM, cAMP HTRF; for IC50 ratio (A1R/A2aR): selectivity A1R over A2aR
Source text: as §1, §2
2.2 Adenosine A1 receptor
as §3, with “CHO-K1/A1R cells were” for “CHO-K1/A3R cells were”, “serum and 1 mg/ml G418. The cells” for “serum and 10 μg/ml puromycin. The cells”, “cells were then resuspended in” for “cells were resuspended in”, “forskolin and N6-cyclopentyladenosine (4× concentration)” for “forskolin and 2Cl-IB-MECA (4× concentration)”, “concentration of CPA was 10” for “concentration of 2Cl-IB-MECA was 5”, “CPA was 10 nM. Intracellular” for “2Cl-IB-MECA was 5 nM. Intracellular”

[4] = target: adenosine A2a receptor (A2aR) (Homo sapiens (Human), UniProt P29274); test: Inhibition of adenosine A2a receptor cAMP signaling pathway (HTRF cAMP, CHO-K1/A2aR cells)
Source text: as §1, §2
2.1 Adenosine A2a Receptor
CHO-K1/A2aR cells were cultured in DMEM/F12 medium containing 10% fetal bovine serum and 800 μg/ml bleomycin. The cells were digested with the cell separation buffer during the experiment. The cells were resuspended in the balanced salt buffer containing 20 mM HEPES and 0.1% bovine serum albumin and counted, and the cell density was adjusted to 10^6 cells/ml. In the 384-well plate, each well was added with 5 μl of cell suspension, and 2.5 μl of test compound (4× concentration) formulated with the balanced salt buffer containing 20 mM HEPES, 0.1% bovine serum albumin, 54 μM rolipram and 2.7 U/ml adenosine deaminase, and the plate was incubated at room temperature for 30 minutes. Each well was then added with 2.5 μl of […] (4× concentration) formulated with the balanced salt buffer containing 20 mM HEPES, 0.1% bovine serum albumin, 54 μM rolipram and 2.7 U/ml adenosine deaminase, and the plate was incubated at room temperature for 30 minutes. The final concentrations of the compounds were: 10000, 2000, 400, 80, 16, 3.2, 0.64, 0.128, 0.0256, 0.00512, and 0.001024 nM. The final concentration of […] was 20 nM. Intracellular cAMP concentration was detected with the cAMP dynamic 2 kit. cAMP-d2 and Anti-cAMP-Eu-Cryptate were diluted respectively with the cAMP lysis buffer at a ratio of 1:4. Each well was added with 5 μl of diluted cAMP-d2, followed by addition of 5 μl of diluted Anti-cAMP-Eu-Cryptate, and the plate was incubated at room temperature in the dark for 1 hour. The HTRF signal values were read by the PHERAstar multi-function microplate reader.

Sequence of adenosine A3 receptor (A3R) (P0DMS8 whole entry): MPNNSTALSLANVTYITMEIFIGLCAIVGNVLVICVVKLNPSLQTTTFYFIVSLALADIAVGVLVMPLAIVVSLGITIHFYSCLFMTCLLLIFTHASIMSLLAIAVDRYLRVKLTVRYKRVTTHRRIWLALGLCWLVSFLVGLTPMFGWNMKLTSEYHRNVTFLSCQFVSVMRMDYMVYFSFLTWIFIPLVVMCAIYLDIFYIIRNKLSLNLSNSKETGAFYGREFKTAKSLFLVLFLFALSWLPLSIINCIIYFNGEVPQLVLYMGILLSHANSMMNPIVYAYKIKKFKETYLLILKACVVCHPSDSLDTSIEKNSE
Sequence of adenosine A2b receptor (A2bR) (P29275 whole entry): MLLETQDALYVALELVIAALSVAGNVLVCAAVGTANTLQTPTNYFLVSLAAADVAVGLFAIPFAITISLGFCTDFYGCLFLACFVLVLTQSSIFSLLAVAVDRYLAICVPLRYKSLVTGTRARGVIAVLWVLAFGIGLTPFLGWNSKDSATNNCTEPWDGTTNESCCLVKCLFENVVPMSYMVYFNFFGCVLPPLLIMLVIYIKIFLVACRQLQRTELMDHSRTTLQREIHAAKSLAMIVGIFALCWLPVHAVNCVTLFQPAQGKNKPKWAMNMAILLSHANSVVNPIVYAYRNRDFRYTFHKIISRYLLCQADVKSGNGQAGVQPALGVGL
Sequence of adenosine A1 receptor (A1R) (P30542 whole entry): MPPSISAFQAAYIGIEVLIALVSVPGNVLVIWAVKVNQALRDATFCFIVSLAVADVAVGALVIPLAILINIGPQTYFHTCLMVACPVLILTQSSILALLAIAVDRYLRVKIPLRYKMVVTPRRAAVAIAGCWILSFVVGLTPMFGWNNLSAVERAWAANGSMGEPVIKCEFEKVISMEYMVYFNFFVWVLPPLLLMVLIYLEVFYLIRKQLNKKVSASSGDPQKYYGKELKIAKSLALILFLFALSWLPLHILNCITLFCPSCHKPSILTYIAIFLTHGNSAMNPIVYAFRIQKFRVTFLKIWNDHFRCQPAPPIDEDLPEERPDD
Sequence of adenosine A2a receptor (A2aR) (P29274 whole entry): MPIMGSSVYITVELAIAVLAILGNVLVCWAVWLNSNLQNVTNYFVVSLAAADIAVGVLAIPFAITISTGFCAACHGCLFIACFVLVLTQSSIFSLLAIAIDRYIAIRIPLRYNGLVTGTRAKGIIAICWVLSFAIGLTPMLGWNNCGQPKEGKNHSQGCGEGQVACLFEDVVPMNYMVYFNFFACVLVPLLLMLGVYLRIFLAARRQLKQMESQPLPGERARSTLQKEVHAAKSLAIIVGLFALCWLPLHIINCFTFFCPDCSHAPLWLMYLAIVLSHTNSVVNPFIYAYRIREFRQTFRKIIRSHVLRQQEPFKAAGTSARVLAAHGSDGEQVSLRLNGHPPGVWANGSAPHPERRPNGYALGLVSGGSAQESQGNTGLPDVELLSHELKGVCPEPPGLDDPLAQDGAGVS

SMILES	IC50 [1] [nM]	IC50 ratio (A2bR/A2aR) [1]	IC50 ratio (A3R/A2aR) [2]	IC50 [2] [nM]	IC50 [3] [nM]	IC50 ratio (A1R/A2aR) [3]	IC50 ([4]; Table 1, ethyl carbazole 20 nM) [nM]	IC50 ([4]; Table 2, ethyl carbazole 20 nM) [nM]	IC50 ([4]; Table 3, ethyl carbazole 20 nM) [nM]
Cc1cc(-c2c(-c3ccc(F)cc3)nc(N)n3cnnc23)cc(CF)n1 [Example 55, 8-(2-(Fluoromethyl)-6-methylpyridin-4-yl)-7-(4-fluorophenyl)-[1,2,4]triazolo[4,3-c]pyrimidin-5-amine]	78.2	75	>10^3	> 10000	222	214	1.04	1.04	1.04
Cc1cc(-c2c(-c3ccccc3F)nc(N)n3cnnc23)cc(C)n1 [Example 19, 8-(2,6-Dimethylpyridin-4-yl)-7-(2-fluorophenyl)-[1,2,4]triazolo[4,3-c]pyrimidin-5-amine]	85.4	89	>10^4	> 10000	173	180	0.96	0.96	0.96
Cc1cc(-c2c(-c3ccccc3F)nc(N)n3cnnc23)cc(C(F)F)n1 [Example 56, 8-(2-(Difluoromethyl)-6-methylpyridin-4-yl)-7-(2-fluorophenyl)-[1,2,4]triazolo[4,3-c]pyrimidin-5-amine]	112	67	>10^3	> 10000	248	148	1.68	1.68	1.68
Cc1cc(-c2c(-c3ccc(Cl)cc3F)nc(N)n3cnnc23)cc(C(F)F)n1 [Example 59, 7-(4-Chloro-2-fluorophenyl)-8-(2-(difluoromethyl)-6-methylpyridin-4-yl)-[1,2,4]triazolo[4,3-c]pyrimidin-5-amine]	884	290	>10^3	> 10000	1010	330	3.05	3.05	3.05
Cc1cc(-c2c(-c3ccccc3)nc(N)n3cnnc23)cc(Cl)n1 [Example 4, 8-(2-Chloro-6-methylpyridin-4-yl)-7-phenyl-[1,2,4]triazolo[4,3-c]pyrimidin-5-amine]	82.6	1032	>1.3 × 10^5	> 10000	37	463	0.08	0.08	0.08
Cc1cc(-c2c(-c3ccccc3F)nc(N)n3cnnc23)cc(CF)n1 [Example 57, 8-(2-(Fluoromethyl)-6-methylpyridin-4-yl)-7-(2-fluorophenyl)-[1,2,4]triazolo[4,3-c]pyrimidin-5-amine]	209	81	>10^3	> 10000	302	117	2.59	2.59	2.59
